Test results from the NIST ThermoML archive (doi:10.1016/j.jct.2016.05.011).
± gives the expanded uncertainty stated by the source.

Experiments:
[1] = refractive index (Na D-line) (dimensionless); conditions: 293.15 K; 101.33 kPa; Liquid; Standard Abbe refractometry
[2] = Liquid; for mass density: 293.15 K, 101.33 kPa, Vibrating tube method; for Normal boiling temperature: Ebulliometric method (Recirculating still)

SMILES	refractive index [1]	mass density [2]	Normal boiling temperature [2]
CC#N [acetonitrile]	1.3439 ± 0.0004	782.1 ± 1 kg/m3	81.44 ± 0.3 °C
CO [methanol]	1.3283 ± 0.0004	791.1 ± 1 kg/m3	64.41 ± 0.3 °C
